# Patent US9205064B2, “Methods for the diagnosis of oncological disorders using epimetabolic shifters, multidimensional intracellular molecules, or environmental influencers” (Berg LLC, priority 2009, dated 2015)
# Experiments:
# [1] = system: oncogenic and normal cell lines; assay: Minimal CoQ10 concentration and treatment time for induction of early apoptosis (Bcl-2, caspase activation, annexin V); format: cell-based
# Procedure: CoQ10 treatment of cells was carried out as described in detail below in the Materials and Methods. Induction of apoptosis was assessed in the treated cells by monitoring indicators of early apoptosis (e.g., Bcl-2 expression, caspase activation and by using annexin V assays) as described below. From these studies, the minimal CoQ10 dosage, e.g., concentration of CoQ10 and time of treatment, required to induce apoptosis in the panel of cell lines was determined.
# Cells were cultured in T-75 flasks with relevant medium supplemented with 10% Fetal Bovine Serum (FBS), 1% PSA (penicillin, streptomycin, amphotericin B) (Invitrogen and Cellgro) in a 37° C. incubator with 5% CO2 levels until 70-80% confluence was reached. To harvest cells for treatment, flasks were primed with 1 mL Trypsin, aspirated, trypsinized with an additional 3 mL, and incubated at 37° C. for 3-5 minutes. Cells were then neutralized with an equal volμme of media and the subsequent solution was centrifuged at 10,000 rpm for 8 minutes. The supernatant was aspirated and the cells were resuspended with 8.5 ml of media. A mixture of 500 ul of the resuspension and 9.5 ml of […] was read twice by a coulter counter and the appropriate number of cells to be seeded into each dish was determined Control and concentration ranging from 0-200 μM groups were examined in triplicate. From a 500 μM CoQ-10 stock solution, serial dilutions were performed to achieve desired experimental concentration in appropriate dishes. Dishes were incubated in a 37° C. incubator with 5% CO2 levels for 0-72 hours depending on cell type and experimental protocol.
# Following cell treatment incubation period was complete, protein isolation was performed. Dishes of all treatment groups were washed twice with 2 ml, and once with 1 ml of ice cold 1× Phosphate Buffered Saline (PBS). The PBS was aspirated from the dishes after the initial 2 washes only. Cells were gently scraped and collected into microcentrifuge tubes using the final volume from the third wash and centrifuged at 10,000 rpm for 10 minutes. After centrifugation, the supernatant was aspirated and the pellet was lysed with 50 uL of lysis buffer (1 uL of protease and phosphotase inhibitor for every 100 uL of lysis buffer). Samples were then frozen overnight at −20° C.
# After the cell treatment incubation period was complete, protein isolation was performed. Flasks of all treatment groups were washed twice with 5 mL, and once with 3 mL of ice cold 1×PBS. The PBS was aspirated from the flasks after the first 2 washes only. Cells were gently scraped and collected into 15 mL centrifuge tubes using the final volume from the third wash and centrifuged for at 10,000 rpm for 10 minutes. After centrifugation, the supernatant was aspirated and the pellet was lysed with an appropriate amount of lysis buffer (1 uL of protease and phosphotase inhibitor for every 100 uL of lysis buffer). Lysis buffer volume was dependent on pellet size. Samples were transferred in microcentrifuge tubes and frozen overnight at −20° C.
# Samples were thawed at […] and sonicated to ensure homogenization the day following protein isolation. Protein quantification was performed using the micro BCA protein assay kit (Pierce). To prepare samples for Immuno-blotting, a 1:19 solution of betamercaptoethanol (Sigma) to sample buffer (Bio-Rad) was prepared. Samples were diluted 1:1 with the betamercaptoethanol-sample buffer solution, boiled at 95° C. for 5 minutes, and frozen overnight at −20° C.
# The volume of sample to load per well was determined using the raw mean concentration of protein obtained from the BCA protein assay. Approximately 30-60 μg of protein were loaded for each treatment time point. Proteins were run in triplicate on 12% Tris-HCl ready gels (Bio-Rad) or hand cast gels in 1× running buffer at 85 and 100 volts. Proteins were then transferred onto nitrocellulose paper for an hour at 100 volts, and blocked for another hour in a 5% milk solution. […]
# [2] = system: HepG2 (liver cancer) cells; assay: Real-time PCR Diabetes Array; format: cell-based
# Procedure: The treatment was initiated on 1×10^5 cells per well, following the procedure utilized in the PaCa2 cells (above, Examples 9-11). However, the total amount of RNA that was extracted from these samples was lower than expected. Reverse transcription is normally done using 1 μg of total RNA (determined by measurement at 260 nm). The maximum volume that can be used per reverse transcription is 8 μl.
smiles,measurement,setting,value
"COC1=C(OC)C(=O)C(C/C=C(\C)CC/C=C(\C)CC/C=C(\C)CC/C=C(\C)CC/C=C(\C)CC/C=C(\C)CC/C=C(\C)CC/C=C(\C)CC/C=C(\C)CCC=C(C)C)=C(C)C1=O [Q10, Coenzyme Q10]","Indication of Early apoptosis (Bcl-2, annexin V, or caspase activation)",[1]; BONE: Ewing's sarcoma (NCI),Extremely strong
same,Minimal CoQ10 Concentration for early apoptosis,[1]; BONE: Ewing's sarcoma (NCI),5 µM
same,Minimal treatment Time for early apoptosis,[1]; BONE: Ewing's sarcoma (NCI),1 h
same,"Indication of Early apoptosis (Bcl-2, annexin V, or caspase activation)",[1]; BONE: Osteosarcoma (143b),Very Strong
same,Minimal CoQ10 Concentration for early apoptosis,[1]; BONE: Osteosarcoma (143b),50 µM
same,Minimal treatment Time for early apoptosis,[1]; BONE: Osteosarcoma (143b),48 h
same,"Indication of Early apoptosis (Bcl-2, annexin V, or caspase activation)",[1]; BREAST: BT-20,Strong
same,Minimal CoQ10 Concentration for early apoptosis,[1]; BREAST: BT-20,100 µM
same,Minimal treatment Time for early apoptosis,[1]; BREAST: BT-20,48 h
same,"Indication of Early apoptosis (Bcl-2, annexin V, or caspase activation)",[1]; BREAST: MCF-7,Strong
same,Minimal CoQ10 Concentration for early apoptosis,[1]; BREAST: MCF-7,50 µM
same,Minimal treatment Time for early apoptosis,[1]; BREAST: MCF-7,48 h
same,"Indication of Early apoptosis (Bcl-2, annexin V, or caspase activation)",[1]; BREAST: MDA MB 468,Strong
same,Minimal CoQ10 Concentration for early apoptosis,[1]; BREAST: MDA MB 468,100 µM
same,Minimal treatment Time for early apoptosis,[1]; BREAST: MDA MB 468,48 h
same,"Indication of Early apoptosis (Bcl-2, annexin V, or caspase activation)",[1]; BREAST: SkBr-3,Very Strong
same,Minimal CoQ10 Concentration for early apoptosis,[1]; BREAST: SkBr-3,50 µM
same,Minimal treatment Time for early apoptosis,[1]; BREAST: SkBr-3,24 h
same,"Indication of Early apoptosis (Bcl-2, annexin V, or caspase activation)",[1]; BREAST: ZR-75,Slight
same,Minimal CoQ10 Concentration for early apoptosis,[1]; BREAST: ZR-75,200 µM
same,Minimal treatment Time for early apoptosis,[1]; BREAST: ZR-75,72 h
same,"Indication of Early apoptosis (Bcl-2, annexin V, or caspase activation)",[1]; Fibroblasts (nFib),None
same,"Indication of Early apoptosis (Bcl-2, annexin V, or caspase activation)",[1]; Heart: Aortic smooth muscle (HASMC),None
same,"Indication of Early apoptosis (Bcl-2, annexin V, or caspase activation)","[1]; Keratinocytes (Heka, Hekn)",None
same,"Indication of Early apoptosis (Bcl-2, annexin V, or caspase activation)",[1]; LIVER: Hep3B,Very Strong
same,Minimal CoQ10 Concentration for early apoptosis,[1]; LIVER: Hep3B,50 µM
same,Minimal treatment Time for early apoptosis,[1]; LIVER: Hep3B,24 h
same,"Indication of Early apoptosis (Bcl-2, annexin V, or caspase activation)",[1]; LIVER: HepG2,Very Strong
same,Minimal CoQ10 Concentration for early apoptosis,[1]; LIVER: HepG2,50 µM
same,Minimal treatment Time for early apoptosis,[1]; LIVER: HepG2,24 h
same,"Indication of Early apoptosis (Bcl-2, annexin V, or caspase activation)",[1]; Mammary fiboblasts: 184A1 and 184B5,None
same,"Indication of Early apoptosis (Bcl-2, annexin V, or caspase activation)","[1]; Melanocytes (Hema, LP)",None
same,"Indication of Early apoptosis (Bcl-2, annexin V, or caspase activation)",[1]; Melanoma (Skmel 2),Very Strong
same,Minimal CoQ10 Concentration for early apoptosis,[1]; Melanoma (Skmel 2),25 µM
same,Minimal treatment Time for early apoptosis,[1]; Melanoma (Skmel 2),24 h
same,"Indication of Early apoptosis (Bcl-2, annexin V, or caspase activation)",[1]; Melanoma (Skmel 28),Strong
same,Minimal CoQ10 Concentration for early apoptosis,[1]; Melanoma (Skmel 28),20 µM
same,Minimal treatment Time for early apoptosis,[1]; Melanoma (Skmel 28),24 h
same,"Indication of Early apoptosis (Bcl-2, annexin V, or caspase activation)",[1]; PANCREAS: PaCa2,Very Strong
same,Minimal CoQ10 Concentration for early apoptosis,[1]; PANCREAS: PaCa2,25 µM
same,Minimal treatment Time for early apoptosis,[1]; PANCREAS: PaCa2,24 h
same,"Indication of Early apoptosis (Bcl-2, annexin V, or caspase activation)",[1]; PROSTATE: PC3,Very Strong
same,Minimal CoQ10 Concentration for early apoptosis,[1]; PROSTATE: PC3,25 µM
same,Minimal treatment Time for early apoptosis,[1]; PROSTATE: PC3,24 h
same,"Indication of Early apoptosis (Bcl-2, annexin V, or caspase activation)","[1]; SCC, Squamous cell carcinoma",Very Strong
same,Minimal CoQ10 Concentration for early apoptosis,"[1]; SCC, Squamous cell carcinoma",25 µM
same,Minimal treatment Time for early apoptosis,"[1]; SCC, Squamous cell carcinoma",24 h
same,"effect on normal cells, including keratinocytes and dermal fibroblasts",[1]; normal tissue environment,increased proliferation and migration
same,efficacy of treatment (induction of apoptosis) across cell types,[1]; panel of oncogenic and normal cell lines,greater in cell types that exhibited increased oncogenicity and/or greater metastatic potential
same,genes regulated in the Diabetes Arrays,"[2]; 100 μM Q10, PPARGC1A gene",PPARGC1A
same,genes regulated in the Diabetes Arrays,"[2]; 100 μM Q10, PRKAA1 gene",PRKAA1
same,genes regulated in the Diabetes Arrays,"[2]; 100 μM Q10, SNAP25 gene",SNAP25
